From patent US11918561B2, “Treatment of breast cancer using combination therapies comprising GDC-9545 and a CDK4/6 inhibitor” (Genentech, Inc., priority 2020, dated 2024)

Columns and labels:
[1] = Pharmacokinetics of GDC-9545 and palbociclib in patients; format: in vivo, human
Excerpt: Pharmacokinetics. […] Palbociclib PK was not altered when given with GDC-9545 and was consistent with reported values.

[2] = system: ER+ (HER2−) metastatic breast cancer; test: Clinical activity (clinical benefit, response, PFS; RECIST v1.1); format: in vivo, human
Excerpt: “Objective response rate” or “ORR” refers the percentage of patients with a confirmed complete response or partial response on two consecutive occasions ≥4 weeks apart, as determined by the investigator according to RECIST v1.1
“Progression free survival” or “PFS” refers to the time from enrollment to the date of the first recorded occurrence of disease progression, as determined by the investigator using RECIST v1.1 or death from any cause, whichever occurs first.
“Clinical benefit rate” or “CBR” refers to the percentage of patients with stable disease for at least 24 weeks or with confirmed complete or partial response, as determined by the investigator according to RECIST v1.1.
Clinical Activity. In Cohort A 22/40 patients (55%) derived clinical benefit defined as patients with CR, PR or first occurrence of progressive disease observed on or after 24 weeks.

[3] = system: patients with ER+ (HER2−) metastatic breast cancer; conditions: human, in vivo
Excerpt: A graded adverse event refers to the severity grading scale as established for by NCI CTCAE. In one embodiment, the adverse event is graded in accordance with the table below.
No prior treatment with CDK4/6i was allowed in patients receiving palbociclib.

[4] = system: patients with ER+ (HER2−) metastatic breast cancer; test: Reason for discontinuation of study treatment; format: in vivo; conditions: Cohort A n = 40, Cohort B n = 48
[5] = system: ESR1 mutant allele (ctDNA); test: ctDNA ESR1 mutant allele frequency, change from baseline; format: in vivo, human; conditions: all patients in both cohorts (n=26)
PR = test: Pharmacodynamics: PR protein level in paired pre- and on-treatment biopsies; format: in vivo, human; conditions: 7/8, cohort not stated
ER = target: T1, ER (Homo sapiens, UniProt P03372); test: Pharmacodynamics: ER protein level in paired pre- and on-treatment biopsies; format: in vivo; conditions: 10/12; pre- and on-treatment biopsies (n=12); cohort not stated
T1 construct: from tissue; host or cells: patients' tumour biopsies (pre- and on-treatment)
T1 sequence (P03372 1-595): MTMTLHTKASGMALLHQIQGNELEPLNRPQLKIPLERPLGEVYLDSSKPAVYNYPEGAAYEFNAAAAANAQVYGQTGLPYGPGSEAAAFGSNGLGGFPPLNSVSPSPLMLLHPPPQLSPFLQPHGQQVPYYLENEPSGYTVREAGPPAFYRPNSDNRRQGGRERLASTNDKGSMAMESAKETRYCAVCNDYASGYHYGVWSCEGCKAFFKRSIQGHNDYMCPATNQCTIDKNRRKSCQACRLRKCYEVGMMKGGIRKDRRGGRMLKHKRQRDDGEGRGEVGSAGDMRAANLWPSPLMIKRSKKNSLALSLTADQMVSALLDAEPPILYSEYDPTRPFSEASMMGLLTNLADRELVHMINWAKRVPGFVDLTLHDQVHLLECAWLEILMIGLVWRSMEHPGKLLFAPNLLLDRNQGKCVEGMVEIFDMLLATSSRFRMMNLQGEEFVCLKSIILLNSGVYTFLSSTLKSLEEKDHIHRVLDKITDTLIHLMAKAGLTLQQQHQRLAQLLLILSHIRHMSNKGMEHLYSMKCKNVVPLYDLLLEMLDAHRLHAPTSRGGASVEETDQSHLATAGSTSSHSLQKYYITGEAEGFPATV

ER pathway signature = test: Pharmacodynamics: ER pathway signature score in paired biopsies; format: in vivo, human; conditions: 8/12; pre- and on-treatment biopsies (n=12); cohort not stated
Excerpt: An “ER pathway activity score” as used herein, refers to a numerical value that reflects mathematical difference between the E2-induced score and the E2-repressed score.
Breast cancer is a heterogeneous disease with many distinct subtypes as defined by molecular signatures and a diverse array of mutational profiles. Patients described herein can be tested for ER+ HER2− laBC or mBC using diagnostic methods, or kits to inform treating or predict of responsiveness of a pateint to the combination therapies described herein. In one embodiment, a patient can be tested by determining an ER pathway activity score such as those described in US Patent Application Publication 20200082944. In some embodiments, a patient sample is taken and tested to determine an ER pathway activity score. The score can be calculated using a 41-gene signature by subtracting an E2-repressed score (as determined from the average z-scored expression of genes comprising BAMBI, BCAS1, CCNG2, DDIT4, EGLN3, FAM171B, GRM4, IL1R1, LIPH, NBEA, PNPLA7, PSCA, SEMA3E, SSPO, STON1, TGFB3, TP531NP1, and TP531NP2) from an E2-induced score (as determined from the average z-scored expression of genes set forth in AGR3, AMZ1, AREG, C5AR2, CELSR2, CT62, FKBP4, FMN1, GREB1, IGFBP4, NOSIAP, NXPH3, OLFM1, PGR, PPMIJ, […], RBM24, RERG, RET, SGK3, SLC9A3R1, TFF1, and ZNF703).

[6] = Cohort A n = 40, Cohort B n = 48
[7] = of 31 (Cohort A) and 45 (Cohort B) patients with measurable disease

In the case of `CC(=O)c1c(C)c2cnc(Nc3ccc(N4CCNCC4)cn3)nc2n(C2CCCC2)c1=O` [Palbociclib, 6-acetyl-8-cyclopentyl-5-methyl-2-{[5-(piperazin-1-yl)pyridin-2-yl]amino}pyrido[2,3-d]pyrimidin-7(8H)-one, reference compound], the “Palbociclib PK when given with GDC-9545” value ([1]; consistent with reported values) is reported as “not altered”.
For `C[C@@H]1Cc2c([nH]c3ccccc23)[C@@H](c2c(F)cc(NC3CN(CCCF)C3)cc2F)N1CC(F)(F)CO` [GDC-9545, 3-((1R,3R)-1-(2,6-difluoro-4-((1-(3-fluoropropyl)azetidin-3-yl)amino)phenyl)-3-methyl-1,3,4,9-tetrahydro-2H-pyrido[3,4-b]indol-2-yl)-2,2-difluoropropan-1-ol], the “Clinical benefit in patients with prior fulvestrant treatment” value ([2]; Cohort A 2/7, Cohort B 2/3) was 29%, the “Clinical benefit in patients with detectable ESR1 mutations at enrollment” value ([2]; Cohort A 8/13, Cohort B 11/11) was 62% and the “Patients who derived clinical benefit (CR, PR or first progressive disease on or after 24 weeks)” value ([2]; Cohort A 22/40, Cohort B 35/48) was 55%. The “Median PFS” value [2, 6] was 7.8 months, the “Patients with an event of disease progression or death for PFS calculations” value [2, 6] was 55% and the CBR ([2]; Table 3) was 55%. For the same compound, the ORR ([2]; Table 3) was 13%, the Clinical benefit ([2]; number of patients as printed) was 40 and the “Patients with confirmed response” value [2, 7] was 4. For the same compound, the “Patients with unconfirmed response” value [2, 7] was 4, the Partial response ([2]; patients with measurable disease at baseline, Cohort A 4/31, Cohort B 14/45) was 13% and the “Bradycardia AEs reported, patients” value [3] was 8%. For the same compound, the “Grade 3 AEs related to GDC-9545 (others Grade 1-2)” value [3] was “three Grade 3 events of fatigue, transaminase increased, and diarrhea”, the “Heart rate (HR) changes upon completion of treatment” value [3] was “returned to baseline” and the “Patients who discontinued study treatment due to AEs” value [3] was “No patients”. The “Patients with an AE related to GDC-9545” value [3] was 58%, the “Severity of bradycardia AEs” value [3] was “all were Grade 1 and asymptomatic” and the “Treatment-emergent AEs (TEAE) reported, patients” value [3] was 78%. For the same compound, the “Reason for discontinuation: Death” value [4] was 1 (3%) patients (%), the “Reason for discontinuation: Disease progression” value [4] was 22 (55%) patients (%) and the “ctDNA ESR1 mutant allele frequency” value [5] was “Decreases from baseline”. The “Reduced PR protein levels, share of evaluable paired biopsies” value (PR) was 88%, the “Reduced ER protein levels, share of evaluable paired biopsies” value (ER) was 83% and the “Exposure of GDC-9545 in combination with palbociclib versus single agent GDC-9545” value [1] was “generally comparable”. For the same compound, the “Reduced ER pathway signature scores, share of evaluable paired biopsies” value (ER pathway signature) was 67%.
